Reference: PubChem BioAssay (NCI)
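Protocol summary: plate cells (96-well), add compound at 5 concentrations, incubate 48 h, interpolate endpoints linearly. The concentration for full growth arrest is given as TGI.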

Legend:
Assay in all cases: NCI tumour cell line growth inhibition, 48 h
[1] = tested on: NCI-H460 lung
[2] = tested on: DLD-1 colon
[3] = tested on: OVCAR-5 ovarian
[4] = tested on: SF-539 CNS
[5] = tested on: A549 NSCLC
[6] = tested on: SK-MEL-5 melanoma
[7] = tested on: SNB-78 CNS
[8] = tested on: SW-620 colon
[9] = tested on: RXF 393 renal
[10] = tested on: SNB-75 CNS
[11] = tested on: LOX IMVI melanoma
[12] = tested on: MALME-3M melanoma
[13] = tested on: EKVX NSCLC
[14] = tested on: UACC-62 melanoma
[15] = tested on: DMS 273 small cell lung
[16] = tested on: SN12C renal
[17] = tested on: SR leukemia
[18] = tested on: HCC-2998 colon
[19] = tested on: HCT-116 colon
[20] = tested on: HT29 colon
[21] = tested on: HOP-62 NSCLC
[22] = tested on: HL-60(TB) leukemia
[23] = tested on: SF-295 CNS
[24] = tested on: RXF-631 renal
[25] = tested on: RPMI-8226 leukemia
[26] = tested on: NCI-H226 lung
[27] = tested on: SF-268 CNS
[28] = tested on: KM20L2 colon
[29] = tested on: UACC-257 melanoma
[30] = tested on: NCI-H522 lung
[31] = tested on: U251 CNS
[32] = tested on: KM12 colon
[33] = tested on: SK-MEL-28 melanoma
[34] = tested on: UO-31 renal
[35] = tested on: LXFL 529 NSCLC
[36] = tested on: M14 melanoma
[37] = tested on: HOP-18 NSCLC
[38] = tested on: DMS 114 small cell lung
[39] = tested on: OVCAR-8 ovarian
[40] = tested on: CAKI-1 renal
[41] = tested on: HCT-15 colon
[42] = tested on: OVCAR-3 ovarian
[43] = tested on: HOP-92 NSCLC
[44] = tested on: SK-MEL-2 melanoma
[45] = tested on: SNB-19 CNS
[46] = tested on: SK-OV-3 ovarian
[47] = tested on: OVCAR-4 ovarian
[48] = tested on: ACHN renal
[49] = tested on: M19-MEL melanoma
[50] = tested on: A498 renal
[51] = tested on: IGROV1 ovarian
[52] = tested on: CCRF-CEM leukemia
[53] = tested on: TK-10 renal
[54] = tested on: K-562 leukemia
[55] = tested on: 786-0 renal
[56] = tested on: NCI-H23 lung
[57] = tested on: COLO 205 colon
[58] = tested on: MOLT-4 leukemia
[59] = tested on: MCF7 breast
[60] = tested on: NCI/ADR-RES ovarian
[61] = tested on: P388/ADR leukemia
[62] = tested on: XF 498 CNS
[63] = tested on: SN12K1 renal
[64] = tested on: P388 leukemia

Cc1c(Cl)ccc2c1NC(=O)C2(O)CC(=O)c1ccc(Cl)cc1 (stereo not drawn)
TGI [1]: > 63.3 µM
TGI [2]: > 100 µM
TGI [3]: > 100 µM
TGI [4]: > 100 µM
TGI [5]: > 100 µM
TGI [6]: > 100 µM
TGI [7]: > 100 µM
TGI [8]: > 53.1 µM
TGI [9]: > 88.5 µM
TGI [10]: > 100 µM
TGI [11]: > 46.3 µM
TGI [12]: > 54.4 µM
TGI [13]: > 100 µM
TGI [14]: > 71.5 µM
TGI [15]: > 100 µM
TGI [16]: > 54.9 µM
TGI [17]: > 57.1 µM
TGI [18]: > 56.2 µM
TGI [19]: > 54 µM
TGI [20]: > 66.1 µM
TGI [21]: > 100 µM
TGI [22]: > 80.6 µM
TGI [23]: > 58.3 µM
TGI [24]: > 100 µM
TGI [25]: > 84.3 µM
TGI [26]: > 100 µM
TGI [27]: > 100 µM
TGI [28]: > 100 µM
TGI [29]: > 55.9 µM
TGI [30]: > 100 µM
TGI [31]: > 100 µM
TGI [32]: > 100 µM
TGI [33]: > 100 µM
TGI [34]: > 100 µM
TGI [35]: > 53.3 µM
TGI [36]: > 100 µM
TGI [37]: > 100 µM
TGI [38]: 37.1 µM
TGI [39]: > 100 µM
TGI [40]: > 100 µM
TGI [41]: > 60.1 µM
TGI [42]: > 100 µM
TGI [43]: > 100 µM
TGI [44]: > 64.2 µM
TGI [45]: > 100 µM
TGI [46]: > 100 µM
TGI [47]: > 100 µM
TGI [48]: > 100 µM
TGI [49]: 26.9 µM
TGI [50]: > 64.1 µM
TGI [51]: > 100 µM
TGI [52]: 53.5 µM
TGI [53]: > 100 µM
TGI [54]: > 64.8 µM
TGI [55]: > 100 µM
TGI [56]: > 100 µM
TGI [57]: > 64.9 µM
TGI [58]: 63.7 µM

Oc1c(Br)cc2c(c1Br)-c1c(c(O)c3c4c1=NCCC=4C=N3)NCC2
TGI [1]: 27.9 µM
TGI [2]: 25 µM
TGI [3]: 40.2 µM
TGI [4]: 26.5 µM
TGI [59]: 22.2 µM
TGI [5]: > 80.8 µM
TGI [6]: 23.2 µM
TGI [7]: 13.4 µM
TGI [8]: 50.1 µM
TGI [9]: 28.7 µM
TGI [60]: 34.3 µM
TGI [10]: 34.5 µM
TGI [61]: 43.2 µM
TGI [11]: 20.9 µM
TGI [13]: 46.1 µM
TGI [14]: 11.4 µM
TGI [15]: 27.7 µM
TGI [16]: 29.3 µM
TGI [19]: 28.8 µM
TGI [20]: 20.8 µM
TGI [21]: > 66.3 µM
TGI [22]: 16.9 µM
TGI [23]: 19.5 µM
TGI [25]: 29.8 µM
TGI [26]: 32.8 µM
TGI [27]: 23.2 µM
TGI [28]: 18.7 µM
TGI [29]: 20 µM
TGI [30]: 5.52 µM
TGI [31]: 24.5 µM
TGI [32]: 27.2 µM
TGI [62]: 27.2 µM
TGI [33]: 32.5 µM
TGI [34]: 39.8 µM
TGI [63]: 17.4 µM
TGI [37]: 35.6 µM
TGI [38]: 9.76 µM
TGI [39]: 28.5 µM
TGI [40]: 42.2 µM
TGI [41]: 30.6 µM
TGI [64]: > 22.2 µM
TGI [42]: 8.47 µM
TGI [43]: 35.4 µM
TGI [44]: 26.4 µM
TGI [45]: 35.7 µM
TGI [46]: 54.8 µM
TGI [47]: 23.5 µM
TGI [49]: 8.82 µM
TGI [50]: 45.7 µM
TGI [51]: 27.4 µM
TGI [52]: 9.49 µM
TGI [54]: 40.9 µM
TGI [56]: 30.3 µM
TGI [57]: 11.7 µM
TGI [58]: 9.79 µM
